Earlier results, collected in patent US20070141015A1, “TOPICAL ADMINISTRATION CARRIER COMPOSITION AND THERAPEUTIC FORMULATIONS COMPRISING SAME” (priority 2005, published 2007).

[1] = antihypertensive use, chronic 30 mg/day

steady-state peak level [1]: 250 ng/mL
steady-state trough level [1]: 40 ng/mL
plasma level (topical hair growth stimulant, 1 mL 2% b.i.d. dose): Less than 2-30 ng/ML plasma.
SMILES: Nc1cc(N2CCCCC2)nc(N)[n+]1[O-] [Minoxidil]
1 hour peak plasma level (antihypertensive use, after 5 mg starting dose): Antihypertensive: 1 hour peak after 5 mg starting dose: 60 ng/mL plasma;
